Reference: US20240294550A1, “8-OXA-3-AZABICYCLO[3.2.1]OCTANE COMPOUNDS OR SALT THEREOF, AND PREPARATION METHOD AND USE THEREOF” (LITTDD MEDICINES LTD, priority 2021, published 2024)
Counter-ions that a name gives are not always drawn.

Key:
LOVO cells = assay: Cell proliferation assay (CellTiter-Glo); type: cell-based; conditions: Homo sapiens, 96 hours
Description: The cell proliferation inhibition effect of the compound of the invention was tested using CellTiter-Glo™ cell viability assay kit. This kit uses luciferase as the detector. During the luminescence process, the luciferase requires the participation of ATP. CellTiter-Glo™ reagent was added to the cell culture medium, and the luminescence value was measured. The light signal is proportional to the amount of ATP present in the system, and ATP positively correlates with the number of viable cells present, thus the cell proliferation activity is measured.
Cell culture and seeding: LOVO cells in logarithmic growth phase (human colon carcinoma cells) (ATCC CCL-229) were harvested and counted using a platelet counter. Trypan blue exclusion method was used to detect the cell viability to ensure that the cell viability was above 90%. 90 μL of cell suspension (RPMI1640+10% fetal bovine serum) was added to a 96-well transparent flat-bottom black-wall plate (Thermo, 165305) respectively, and the cell concentration was adjusted to 3000/well/90 μl. Cells in the 96-well plate were incubated overnight at 37° C., 5% CO2 with 95% humidity (Thermo, Model 3100 Series).
Firstly, DMSO was used as the solvent to prepare 10 mM mother solution of the test compounds, and then PBS was used to dilute 100 times to prepare a solution of 10 times of final concentration, the highest concentration was 100 μM. 10 μL solution of the test compounds was added to each well of the 96 well plate inoculated with cells, namely the solution was further diluted 10 times to reach the final concentration of 10 μM. Starting from 10 μM, the final concentration of the test compound was 3-fold serially diluted, with 9 concentrations in total with 3 triplicates for each concentration. The 96 well plates with the test compounds and cells were incubated at 37° C., 5% CO2 and 95% humidity for 96 hours, and then CellTiter Glo analysis was performed.
CellTiter-Glo Reagents (CellTiter Glo R Luminescent Cell Viability Assay, Promega, G7572) were melted and the 96-well plates were equilibrated to room temperature for 30 minutes. An equal volume of CellTiter-Glo solution was added to each well, and the cells were lysed by shaking on the fixed orbit shaker for 5 minutes. The assay plates were left at room temperature for 20 minutes to stabilize the luminescence signal, and the luminescence signals were read using the SpectraMax multi-labeled microplate detector (MD, M3).
Data were analyzed using GraphPad Prism 7.0 software, fitted with non-linear S-curve regression to derive the dose-response curves, and IC50 values were calculated therefrom.
Cell survival rate (%)=(LumDrug to be tested−LumCulture medium control)/(LumCell control−LumCulture medium control)×100%

ATR = ATR (Homo sapiens (Human), UniProt Q13535); assay: ATR kinase inhibition assay (HTRF); type: biochemical; conditions: p53 substrate, ATP 150 nM
Description: This experiment adopted Homogeneous time-resolved fluorescence technology (HTRF®) of Cisbio Company for assay.
Experiment method: buffers were prepared as follows:
Preparation of solutions of the test compounds: The example compounds shown in the table below were prepared into solutions using DMSO as solvent, the stock solution typically being 10 mM. The maximum starting concentration in this experiment was 3 μM, DMSO 3-fold serial dilutions for concentrations, the serially diluted solution was added to each well of the corresponding 384-well plate (geriner bio-one, Cat #784075) to give final concentrations of 3000, 1000, 333, 111, 37, 12.3, 4.12, 1.37, 0.457, 0.152 nM, respectively, and the corresponding amount of DMSO was added to the additional wells to be used as negative or positive control wells, respectively.
The enzyme and substrate were separately dissolved and diluted in two tubes with the buffer prepared above at the following concentrations:
5 μL of the ATR protein solution from tube A was added to the compound-containing wells and the negative control wells in the assay plates using an electric multichannel pipettor, and the same volume of the prepared buffer (medium only, no enzyme) was added to the positive control wells. The plates were centrifuged for one minute at 1000 rpm, and then placed in an incubator at 25° C. for 15 minutes. 5 μL of the substrate mix solution from tube B was added to the positive control well, negative control well and the compound-containing well of the assay plates in the same manner, centrifuged and incubated at 25° C. for 90 minutes.
During the reaction, after ATR phosphorylated the substrate p53, two antibodies were added. Among them, anti-phospho-p53-Eu, as an energy donor, can specifically bind to the phosphorylation site of p53, while anti-GST-d2, as an energy receptor, can specifically bind to the GST-tagged p53. Upon excitation by a laser with certain wavelength (the excitation wavelength in this experiment is 340 nm), the energy donor can emit emission light of 615 nm, and when the energy donor and the energy receptor are close enough in space (that is, two antibodies are connected to p53 at the same time), energy transfer can occur between the energy donor and the energy receptor, so that the energy receptor can emit emission light of 665 nm. The two emission lights were detected by a plate reader, and the ratio of the signals at 665 nm and 615 nm was calculated. The IC50 of the samples tested can be obtained by plotting and calculation.
10 μL per well of the detection solution was added to the positive control, negative control and compound wells of the assay plate using an electric multichannel pipette, centrifuged and incubated overnight at 4° C., and read with the plate reader Envision 2104.
Compound inhibition rate was calculated using interpolation. The mean values of the positive and negative controls were calculated respectively, and the following formula was used to calculate the inhibition rates of the compounds:
Inhibition rate Minimum response+(Compound concentration ^Curve slope)*(Maximum response−Minimum response)/(Compound concentration^Curve slope+Half inhibition concentration ^Curve slope)
The IC50 value of each compound to enzyme activity was obtained.

Sequence of ATR (Q13535 whole entry): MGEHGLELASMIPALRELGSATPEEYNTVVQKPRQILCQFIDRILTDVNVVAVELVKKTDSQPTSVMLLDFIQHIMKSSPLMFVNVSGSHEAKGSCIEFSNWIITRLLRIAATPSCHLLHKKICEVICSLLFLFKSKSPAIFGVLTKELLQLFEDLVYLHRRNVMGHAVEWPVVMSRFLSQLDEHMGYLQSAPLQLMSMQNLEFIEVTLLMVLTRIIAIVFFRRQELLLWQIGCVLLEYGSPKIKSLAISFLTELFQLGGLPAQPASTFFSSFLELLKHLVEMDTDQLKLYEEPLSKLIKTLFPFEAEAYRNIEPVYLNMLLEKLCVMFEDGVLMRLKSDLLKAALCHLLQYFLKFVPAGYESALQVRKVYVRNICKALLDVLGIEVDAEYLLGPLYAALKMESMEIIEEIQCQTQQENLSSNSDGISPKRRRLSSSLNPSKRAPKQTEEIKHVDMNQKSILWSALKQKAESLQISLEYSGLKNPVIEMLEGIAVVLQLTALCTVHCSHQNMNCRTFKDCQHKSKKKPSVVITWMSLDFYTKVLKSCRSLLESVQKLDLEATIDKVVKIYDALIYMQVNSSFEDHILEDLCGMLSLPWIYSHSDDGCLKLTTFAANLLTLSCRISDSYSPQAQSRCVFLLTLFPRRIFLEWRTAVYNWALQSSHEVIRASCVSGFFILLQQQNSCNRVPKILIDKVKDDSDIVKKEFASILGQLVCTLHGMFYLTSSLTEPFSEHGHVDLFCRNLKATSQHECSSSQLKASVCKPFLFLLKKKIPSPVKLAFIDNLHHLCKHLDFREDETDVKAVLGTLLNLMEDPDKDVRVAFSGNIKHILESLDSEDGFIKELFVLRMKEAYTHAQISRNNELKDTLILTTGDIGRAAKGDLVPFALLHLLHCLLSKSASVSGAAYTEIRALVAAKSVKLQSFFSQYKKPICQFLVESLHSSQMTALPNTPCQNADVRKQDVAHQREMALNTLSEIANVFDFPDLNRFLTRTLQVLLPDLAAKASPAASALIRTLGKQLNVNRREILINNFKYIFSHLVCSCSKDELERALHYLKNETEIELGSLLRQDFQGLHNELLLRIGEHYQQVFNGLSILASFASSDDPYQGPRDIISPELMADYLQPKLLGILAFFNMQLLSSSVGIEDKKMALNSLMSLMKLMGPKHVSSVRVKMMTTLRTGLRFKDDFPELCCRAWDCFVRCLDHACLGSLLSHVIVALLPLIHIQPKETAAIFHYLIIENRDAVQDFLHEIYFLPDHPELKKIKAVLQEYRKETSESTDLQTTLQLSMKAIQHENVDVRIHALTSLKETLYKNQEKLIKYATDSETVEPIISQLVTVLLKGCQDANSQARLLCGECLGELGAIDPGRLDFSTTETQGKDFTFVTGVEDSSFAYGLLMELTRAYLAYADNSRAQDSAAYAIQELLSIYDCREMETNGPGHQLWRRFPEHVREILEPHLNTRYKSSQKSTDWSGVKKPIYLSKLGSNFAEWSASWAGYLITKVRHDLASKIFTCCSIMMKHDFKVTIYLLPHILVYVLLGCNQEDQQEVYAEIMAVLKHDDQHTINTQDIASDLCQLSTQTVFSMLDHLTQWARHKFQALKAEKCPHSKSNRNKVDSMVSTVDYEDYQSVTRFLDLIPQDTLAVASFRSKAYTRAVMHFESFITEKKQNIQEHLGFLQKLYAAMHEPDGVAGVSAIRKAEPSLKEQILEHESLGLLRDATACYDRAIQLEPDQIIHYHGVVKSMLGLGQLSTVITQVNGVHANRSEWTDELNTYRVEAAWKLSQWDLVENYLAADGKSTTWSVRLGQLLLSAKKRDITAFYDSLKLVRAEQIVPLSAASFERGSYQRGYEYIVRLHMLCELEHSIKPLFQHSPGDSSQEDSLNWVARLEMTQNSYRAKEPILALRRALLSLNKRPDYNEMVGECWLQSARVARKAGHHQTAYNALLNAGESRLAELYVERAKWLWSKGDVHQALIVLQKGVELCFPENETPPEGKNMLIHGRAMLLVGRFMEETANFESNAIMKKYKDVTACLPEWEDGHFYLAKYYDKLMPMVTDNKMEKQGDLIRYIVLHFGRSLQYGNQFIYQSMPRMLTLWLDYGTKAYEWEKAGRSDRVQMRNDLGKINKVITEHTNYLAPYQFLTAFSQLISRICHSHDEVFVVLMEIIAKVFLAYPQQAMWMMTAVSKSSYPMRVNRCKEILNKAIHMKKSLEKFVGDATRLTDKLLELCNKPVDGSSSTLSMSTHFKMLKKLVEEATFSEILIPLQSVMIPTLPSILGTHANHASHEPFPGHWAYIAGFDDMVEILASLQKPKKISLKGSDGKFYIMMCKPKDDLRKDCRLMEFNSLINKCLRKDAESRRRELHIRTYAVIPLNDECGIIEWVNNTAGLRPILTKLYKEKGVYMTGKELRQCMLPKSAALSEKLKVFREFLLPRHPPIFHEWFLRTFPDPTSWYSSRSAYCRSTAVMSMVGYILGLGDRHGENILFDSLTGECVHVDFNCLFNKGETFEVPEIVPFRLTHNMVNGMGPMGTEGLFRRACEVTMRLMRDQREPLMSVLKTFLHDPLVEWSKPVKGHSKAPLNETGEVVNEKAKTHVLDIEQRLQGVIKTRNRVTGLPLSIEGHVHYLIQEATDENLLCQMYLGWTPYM
Sequence of ATR (Q8WXE1 whole entry partner): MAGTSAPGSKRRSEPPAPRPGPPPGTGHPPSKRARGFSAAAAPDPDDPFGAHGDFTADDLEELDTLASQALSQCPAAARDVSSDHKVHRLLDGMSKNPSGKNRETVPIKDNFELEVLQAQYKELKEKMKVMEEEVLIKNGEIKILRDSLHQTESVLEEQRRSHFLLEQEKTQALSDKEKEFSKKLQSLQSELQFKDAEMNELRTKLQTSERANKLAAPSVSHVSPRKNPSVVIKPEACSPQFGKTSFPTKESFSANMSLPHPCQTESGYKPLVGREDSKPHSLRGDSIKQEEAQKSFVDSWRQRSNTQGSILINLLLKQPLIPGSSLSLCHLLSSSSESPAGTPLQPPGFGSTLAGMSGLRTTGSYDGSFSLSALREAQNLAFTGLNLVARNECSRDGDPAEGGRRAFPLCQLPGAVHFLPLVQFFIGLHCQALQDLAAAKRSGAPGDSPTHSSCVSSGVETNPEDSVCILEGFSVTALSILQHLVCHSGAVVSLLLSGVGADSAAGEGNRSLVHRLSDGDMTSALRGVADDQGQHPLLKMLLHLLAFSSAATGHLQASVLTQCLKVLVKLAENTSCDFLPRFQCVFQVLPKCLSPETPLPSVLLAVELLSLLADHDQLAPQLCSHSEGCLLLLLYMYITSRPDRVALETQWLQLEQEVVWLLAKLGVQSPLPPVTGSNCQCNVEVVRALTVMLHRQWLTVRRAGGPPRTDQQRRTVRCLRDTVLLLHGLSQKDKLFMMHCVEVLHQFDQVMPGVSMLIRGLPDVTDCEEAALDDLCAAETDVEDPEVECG

SMILES	IC50 (LOVO cells) [nM]	IC50 (ATR) [nM]
C[C@@H]1CN(C)CCN1c1cc(N2CC3CCC(C2)O3)nn2c(-c3cc[nH]n3)ncc12 [Example 11, 3-(4-((R)-2,4-dimethylpiperazin-1-yl)-7-(1H-pyrazol-3-yl)imidazo[1,5-b]pyridazin-2-yl)-8-oxa-3-azabicyclo[3.2.1]octane formate]	2640	22.4
OCC1COCCN1c1cc(N2C[C@H]3CC[C@@H](C2)O3)nc2c1cnn2-c1cc[nH]n1 (stereo partly drawn) [Example 35, (4-(6-((1R,5S)-8-oxa-3-azabicyclo[3.2.1]octan-3-yl)-1-(1H-pyrazol-3-yl)-1H-pyrazolo[3,4-b]pyridin-4-yl)morpholin-3-yl)methanol]	522	15.3
CC1(C)COCCN1c1cc(N2CC3CCC(C2)O3)nn2c(-c3cc[nH]n3)ncc12 [Example 20, 3-(4-(3,3-dimethylmorpholino)-7-(1H-pyrazol-3-yl)imidazo[1,5-b]pyridazin-2-yl)-8-oxa-3-azabicyclo[3.2.1]octane]	39	1.4
C[C@H]1CC(F)(F)CCN1c1cc(N2CC3CCC(C2)O3)nn2c(-c3cc[nH]n3)ncc12 [Example 32, 3-(4-((S)-4,4-difluoro-2-methylpiperidin-1-yl)-7-(1H-pyrazol-3-yl)imidazo[1,5-b]pyridazin-2-yl)-8-oxa-3-azabicyclo[3.2.1]octane]	156	5.6
C[C@@H]1CNCCN1c1cc(N2CC3CCC(C2)O3)nn2c(-c3cc[nH]n3)ncc12 [Example 9, 3-(4-((R)-2-methylpiperazin-1-yl)-7-(1H-pyrazol-3-yl)imidazo[1,5-b]pyridazin-2-yl)-8-oxa-3-azabicyclo[3.2.1]octane formate]	592	79.2
C[C@@H]1COCCN1c1cc(N2CC3CCC(C2)O3)nc2c(-c3cc[nH]n3)nn(C)c12 [Example 19, 3-(1-methyl-7-((R)-3-methylmorpholino)-3-(1H-pyrazol-3-yl)-1H-pyrazolo[4,3-b]pyridin-5-yl)-8-oxa-3-azabicyclo[3.2.1]octane]	620	–
C[C@@H]1CC(F)(F)CCN1c1cc(N2CC3CCC(C2)O3)nn2c(-c3cc[nH]n3)ncc12 [Example 31, 3-(4-((R)-4,4-difluoro-2-methylpiperidin-1-yl)-7-(1H-pyrazol-3-yl)imidazo[1,5-b]pyridazin-2-yl)-8-oxa-3-azabicyclo[3.2.1]octane]	158	3.9
C[C@@H]1COCCN1c1c(Cl)c(N2CC3CCC(C2)O3)nn2c(-c3cc[nH]n3)ncc12 [Example 4, 3-(3-chloro-4-((R)-3-methylmorpholino)-7-(1H-pyrazol-3-yl)imidazo[1,5-b]pyridazin-2-yl)-8-oxa-3-azabicyclo[3.2.1]octane]	140	20.3
C[C@H]1COCCN1c1cc(N2CC3CCC(C2)O3)nn2c(-c3cc[nH]n3)ncc12 [Example 15, 3-(4-((S)-3-methylmorpholino)-7-(1H-pyrazol-3-yl)imidazo[1,5-b]pyridazin-2-yl)-8-oxa-3-azabicyclo[3.2.1]octane]	186	22
FC1(F)CCN(c2cc(N3CC4CCC(C3)O4)nn3c(-c4cc[nH]n4)ncc23)CC1 [Example 14, 3-(4-(4,4-difluoropiperidin-1-yl)-7-(1H-pyrazol-3-yl)imidazo[1,5-b]pyridazin-2-yl)-8-oxa-3-azabicyclo[3.2.1]octane]	419	8
c1cc(-c2ncc3c(N4C5CCC4COC5)cc(N4CC5CCC(C4)O5)nn23)n[nH]1 [Example 8, 8-(2-(8-oxa-3-azabicyclo[3.2.1]octan-3-yl)-7-(1H-pyrazol-3-yl)imidazo[1,5-b]pyridazin-4-yl)-3-oxa-8-azabicyclo[3.2.1]octane]	243	18.4
C[C@@H]1COCCN1c1cc(N2CC3CCC(C2)O3)nn2c(-c3cc[nH]n3)cnc12 [Example 2, 3-(8-((R)-3-methylmorpholino)-3-(1H-pyrazol-3-yl)imidazo[1,2-b]pyridazin-6-yl)-8-oxa-3-azabicyclo[3.2.1]octane]	479	40.3
